Test results published in paper PMC6499206, “Quantification of Volatile Metabolites Derived From Garlic (Allium sativum) in Human Urine” (Frontiers in Nutrition, 2019).

Test: Quantification of garlic-derived metabolites in human urine after ingestion of 3 g raw garlic (SIDA, SAFE, HRGC-MS / HRGC-GC-MS)
Assay type: in vivo
Settings: 3 g raw garlic
Text: Human urine samples were obtained from 18 volunteers (age 22–38 years, mean 27 years; 11 females, 7 males); thereby, one volunteer conducted the whole experimental series twice. At the time of examination, volunteers reported no known illness that might have potentially influenced the metabolism or the excretion of urine. The test persons were instructed to avoid foods that were rich in sulfur-containing substances at the testing day as well as 2 days preceding the testing day, namely garlic, onion, wild garlic, chives, cabbage, and leek, and were only allowed to consume the garlic sample provided in the course of the experiments. Additionally, subjects were asked to keep records of the food (including food supplements) and beverages they consumed during these 3 testing days. Generally, the overall panelists' requirements were in accordance with our previous studies ([5], [16]).
On the sampling day, the outer garlic cloves of a whole garlic bulb were peeled and cut into ~3 mm cubes by using a garlic cutter (Genius GmbH, Limburg/Lahn, Germany). Subsequently these cubes were thoroughly mixed and aliquoted into 3 g portions. Three to four test persons conducted the experiment at the same day. Each test person was asked to ingest a garlic portion of 3 g. In total, eight consecutive urine samples were provided by each test person, comprising one whole urine set. The samples were collected in sterile brown glass bottles, with sampling times as follows: one sample was provided directly prior to garlic consumption. The series of the second to eighth sample was then obtained at about 0.5, 1, 2, 4, 6, 8, and 24 h after garlic consumption, respectively. Between the first urine sample (prior to garlic consumption) and the seventh urine sample (8 h after garlic consumption) test persons only spent urine at the specific time points mentioned before. Another sample was provided at the next morning (24 h after garlic consumption). Between the samples provided 8 and 24 h after garlic consumption no urine was collected. All samples were immediately placed into a −80°C freezer and were kept frozen until further analysis.
The samples of each set were termed according to their sampling time. The following list provides the time intervals that are related to the respective sample name: • - pre: before garlic consumption • - 0.5 h post: 0.4–0.8 h after garlic consumption • - 1 h post: 0.9–1.3 h after garlic consumption • - 2 h post: 1.8 h−2.2 h after garlic consumption • - 4 h post: 3.8–4.4 h after garlic consumption • - 6 h post: 5.8–6.4 h after garlic consumption • - 8 h post: 7.8–8.4 h after garlic consumption • - 24 h post: 23.8–25.6 h after garlic consumption
A creatinine kit (Labor+Technik Eberhard Lehmann GmbH, Berlin, Germany) was used to determine the creatinine content in each urine sample. The determination principle of this kit is based on the reaction of creatinine with picric acid under basic conditions (Jaffé reaction). The formed complex was detected photometrically at a wavelength of 492 nm.
For quantification purposes, the deuterated standards ^2H3-AMS, ^2H3-AMSO, and ^2H3-AMSO2 were added to the sample and stirred for 10 min. Subsequently, DCM was added in a ratio of 1:2 (DCM/human urine; v/v) and this solution was stirred for further 30 min at room temperature. To isolate the volatile fraction from the urine samples we then applied SAFE-distillation ([17]), thereby distilling the respective samples at 50°C. After completion of the distillation process, 10 mL of DCM were applied in each case to rinse the SAFE apparatus and to ensure complete transition of the volatile compounds. This process was repeated with another 10 mL of DCM. After thawing, the obtained aqueous distillate phase was extracted three times with 25 mL DCM. The organic phases were combined, dried over anhydrous Na2SO4 and concentrated to a total volume of 100 μL by means of Vigreux distillation and subsequent micro-distillation at 50°C. […]

C=CC[S+](C)[O-] (stereo not shown) [AMSO, allyl methyl sulfoxide]
metabolite concentration in urine (U IV, 6 h post (6.08 h)): 63.5 µg/kg | metabolite concentration in urine, creatinine-normalized (U IV, 6 h post (6.08 h)): 4.6 µg/mmol creatinine | metabolite concentration in urine (U IV, 8 h post (8.05 h)): 31.9 µg/kg | metabolite concentration in urine, creatinine-normalized (U IV, 8 h post (8.05 h)): 6.7 µg/mmol creatinine | metabolite concentration in urine (U IV, 24 h post (24.03 h)): 3.8 µg/kg | metabolite concentration in urine, creatinine-normalized (U IV, 24 h post (24.03 h)): 0.4 µg/mmol creatinine | metabolite concentration in urine (U IV, pre (-0.05 h)): < LOD^2 | metabolite concentration in urine, creatinine-normalized (U IV, pre (-0.05 h)): < LOD^2 | metabolite concentration in urine (U IX, 0.5 h post (0.67 h)): 164.4 µg/kg | metabolite concentration in urine, creatinine-normalized (U IX, 0.5 h post (0.67 h)): 156.1 µg/mmol creatinine | metabolite concentration in urine (U IX, 1 h post (1.17 h)): 332.3 µg/kg | metabolite concentration in urine, creatinine-normalized (U IX, 1 h post (1.17 h)): 344.1 µg/mmol creatinine | metabolite concentration in urine (U IX, 2 h post (1.83 h)): 337.6 µg/kg | metabolite concentration in urine, creatinine-normalized (U IX, 2 h post (1.83 h)): 320.5 µg/mmol creatinine | metabolite concentration in urine (U IX, 4 h post (4.17 h)): 293.5 µg/kg | metabolite concentration in urine, creatinine-normalized (U IX, 4 h post (4.17 h)): 56.6 µg/mmol creatinine | metabolite concentration in urine (U IX, 6 h post (6.08 h)): 182.9 µg/kg | metabolite concentration in urine, creatinine-normalized (U IX, 6 h post (6.08 h)): 57.5 µg/mmol creatinine | metabolite concentration in urine (U IX, 8 h post (8.08 h)): 100.1 µg/kg | metabolite concentration in urine, creatinine-normalized (U IX, 8 h post (8.08 h)): 7.2 µg/mmol creatinine | metabolite concentration in urine (U IX, 24 h post (24.00 h)): 30.4 µg/kg | metabolite concentration in urine, creatinine-normalized (U IX, 24 h post (24.00 h)): 3.5 µg/mmol creatinine | metabolite concentration in urine (U IX, pre (-0.08 h)): < LOD^2 | metabolite concentration in urine, creatinine-normalized (U IX, pre (-0.08 h)): < LOD^2 | metabolite concentration in urine (U V, 0.5 h post (0.50 h)): 84.4 µg/kg | metabolite concentration in urine, creatinine-normalized (U V, 0.5 h post (0.50 h)): 123.5 µg/mmol creatinine | metabolite concentration in urine (U V, 1 h post (1.00 h)): 122.6 µg/kg | metabolite concentration in urine, creatinine-normalized (U V, 1 h post (1.00 h)): 146.3 µg/mmol creatinine | metabolite concentration in urine (U V, 2 h post (2.00 h)): 104.6 µg/kg | metabolite concentration in urine, creatinine-normalized (U V, 2 h post (2.00 h)): 124.9 µg/mmol creatinine | metabolite concentration in urine (U V, 4 h post (4.00 h)): 104.9 µg/kg | metabolite concentration in urine, creatinine-normalized (U V, 4 h post (4.00 h)): 34.0 µg/mmol creatinine | metabolite concentration in urine (U V, 6 h post (6.00 h)): 68.8 µg/kg | metabolite concentration in urine, creatinine-normalized (U V, 6 h post (6.00 h)): 13.8 µg/mmol creatinine | metabolite concentration in urine (U V, 8 h post (8.00 h)): 29.0 µg/kg | metabolite concentration in urine, creatinine-normalized (U V, 8 h post (8.00 h)): 13.4 µg/mmol creatinine | metabolite concentration in urine (U V, 24 h post (24.00 h)): 1.9 µg/kg | metabolite concentration in urine, creatinine-normalized (U V, 24 h post (24.00 h)): 0.3 µg/mmol creatinine | metabolite concentration in urine (U V, pre (-0.05 h)): < LOD^2 | metabolite concentration in urine, creatinine-normalized (U V, pre (-0.05 h)): < LOD^2 | metabolite concentration in urine (U VI, 0.5 h post (0.50 h)): 193.1 µg/kg | metabolite concentration in urine, creatinine-normalized (U VI, 0.5 h post (0.50 h)): 88.3 µg/mmol creatinine | metabolite concentration in urine (U VI, 1 h post (1.00 h)): 203.5 µg/kg | metabolite concentration in urine, creatinine-normalized (U VI, 1 h post (1.00 h)): 169.6 µg/mmol creatinine | metabolite concentration in urine (U VI, 2 h post (2.00 h)): 143.4 µg/kg | metabolite concentration in urine, creatinine-normalized (U VI, 2 h post (2.00 h)): 129.2 µg/mmol creatinine | metabolite concentration in urine (U VI, 4 h post (4.00 h)): 134.9 µg/kg | metabolite concentration in urine, creatinine-normalized (U VI, 4 h post (4.00 h)): 39.0 µg/mmol creatinine | metabolite concentration in urine (U VI, 6 h post (6.00 h)): 188.9 µg/kg | metabolite concentration in urine, creatinine-normalized (U VI, 6 h post (6.00 h)): 35.0 µg/mmol creatinine | metabolite concentration in urine (U VI, 8 h post (8.00 h)): 79.0 µg/kg | metabolite concentration in urine, creatinine-normalized (U VI, 8 h post (8.00 h)): 15.8 µg/mmol creatinine | metabolite concentration in urine (U VI, 24 h post (24.17 h)): 139.8 µg/kg | metabolite concentration in urine, creatinine-normalized (U VI, 24 h post (24.17 h)): 9.6 µg/mmol creatinine | metabolite concentration in urine (U VI, pre (-0.05 h)): < LOD^2 | metabolite concentration in urine, creatinine-normalized (U VI, pre (-0.05 h)): < LOD^2 | metabolite concentration in urine (U VII, 0.5 h post (0.50 h)): 133.2 µg/kg | metabolite concentration in urine, creatinine-normalized (U VII, 0.5 h post (0.50 h)): 125.0 µg/mmol creatinine
